One experiment has as its target VEGFR-2 kinase (Homo sapiens (Human), UniProt P35968). Description: Assay of small molecular compounds for inhibiting the activity of VEGFR-2 kinase (LANCE TR-FRET). Type of experiment: biochemical. The note with it: read-out: VEGFR2 IC50. The procedure, abridged: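 LANCE TR-FRET with human VEGFR-2 (2× stock 0.5 nM) preincubated 30 min with compound (final 2500 to 0.042 nM, 11-point 3-fold), then ULight-JAK-1 (Tyr1023) peptide/ATP added (4× stocks 200 nM/40 μM). Reaction 60 min room temperature, 4% DMSO; IC50 from inhibition-rate curve.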
In general terms: Time-resolved FRET reads energy transfer from a long-lived donor to a nearby acceptor.

The next experiment addresses TRKA kinase (Homo sapiens (Human), UniProt P04629). Description: Assay of small molecular compounds for inhibiting the activity of TRKA kinase (LANCE TR-FRET). In kind it is biochemical. The procedure, abridged:
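TRKA (supplied as 2 nM 2× solution) was pre-reacted with compounds for 5 min at room temperature before a 4× ULight-TK peptide/ATP mix (400 nM/40 μM) started the 60-min dark reaction at 1% DMSO. After stop and 60-min detection, TR-FRET was read.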

Another experiment relates to Ba/F3 LMNA-NTRK1 cells. Description: Assay for inhibiting the proliferation of Ba/F3 LMNA-NTRK1 cells (CCK-8). Type of experiment: cell-based. To be noted: Mus musculus, BaF3. The procedure, abridged:
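Viability was read as absorbance at 450 nm following 1–2 h CCK-8 incubation at 37 °C, relative to control and blank wells.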

As usually defined, the IC50 is the concentration that inhibits the measured activity by half.

VEGFR-2 kinase, sequence (P35968 20-1356): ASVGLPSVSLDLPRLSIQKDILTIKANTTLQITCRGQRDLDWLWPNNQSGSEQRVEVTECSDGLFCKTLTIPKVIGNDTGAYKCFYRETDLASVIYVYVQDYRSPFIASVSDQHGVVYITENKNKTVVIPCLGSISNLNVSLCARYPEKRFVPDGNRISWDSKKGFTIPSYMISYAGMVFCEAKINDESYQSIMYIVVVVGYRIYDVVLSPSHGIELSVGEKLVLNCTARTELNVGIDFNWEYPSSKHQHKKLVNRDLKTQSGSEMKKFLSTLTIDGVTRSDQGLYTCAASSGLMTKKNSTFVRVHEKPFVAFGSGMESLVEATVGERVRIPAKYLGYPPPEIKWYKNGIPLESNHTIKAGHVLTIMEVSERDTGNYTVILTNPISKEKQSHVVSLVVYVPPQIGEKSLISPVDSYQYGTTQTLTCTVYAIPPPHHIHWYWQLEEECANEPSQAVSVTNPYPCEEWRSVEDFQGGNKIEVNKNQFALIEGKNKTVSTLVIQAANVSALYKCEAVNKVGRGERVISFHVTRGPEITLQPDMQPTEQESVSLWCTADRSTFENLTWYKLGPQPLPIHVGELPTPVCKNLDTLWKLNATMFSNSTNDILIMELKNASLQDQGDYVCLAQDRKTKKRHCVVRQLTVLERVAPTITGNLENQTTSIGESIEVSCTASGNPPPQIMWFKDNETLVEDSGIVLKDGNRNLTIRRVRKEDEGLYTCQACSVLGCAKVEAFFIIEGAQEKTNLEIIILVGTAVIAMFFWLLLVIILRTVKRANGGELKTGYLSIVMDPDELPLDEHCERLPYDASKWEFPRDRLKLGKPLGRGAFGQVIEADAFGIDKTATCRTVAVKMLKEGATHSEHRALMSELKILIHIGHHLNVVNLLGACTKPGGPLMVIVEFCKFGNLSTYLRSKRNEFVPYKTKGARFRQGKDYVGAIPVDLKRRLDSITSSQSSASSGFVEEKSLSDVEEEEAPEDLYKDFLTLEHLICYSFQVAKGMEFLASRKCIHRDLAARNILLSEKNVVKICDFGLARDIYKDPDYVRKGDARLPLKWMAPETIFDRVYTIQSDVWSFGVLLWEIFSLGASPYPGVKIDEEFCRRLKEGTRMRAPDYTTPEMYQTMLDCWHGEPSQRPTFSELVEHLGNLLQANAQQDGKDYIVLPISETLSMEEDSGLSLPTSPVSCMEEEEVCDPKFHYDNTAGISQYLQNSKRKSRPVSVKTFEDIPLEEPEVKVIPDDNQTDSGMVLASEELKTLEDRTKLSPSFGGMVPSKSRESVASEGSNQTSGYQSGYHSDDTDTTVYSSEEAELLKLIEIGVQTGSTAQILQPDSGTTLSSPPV
TRKA kinase, sequence (P04629 33-796): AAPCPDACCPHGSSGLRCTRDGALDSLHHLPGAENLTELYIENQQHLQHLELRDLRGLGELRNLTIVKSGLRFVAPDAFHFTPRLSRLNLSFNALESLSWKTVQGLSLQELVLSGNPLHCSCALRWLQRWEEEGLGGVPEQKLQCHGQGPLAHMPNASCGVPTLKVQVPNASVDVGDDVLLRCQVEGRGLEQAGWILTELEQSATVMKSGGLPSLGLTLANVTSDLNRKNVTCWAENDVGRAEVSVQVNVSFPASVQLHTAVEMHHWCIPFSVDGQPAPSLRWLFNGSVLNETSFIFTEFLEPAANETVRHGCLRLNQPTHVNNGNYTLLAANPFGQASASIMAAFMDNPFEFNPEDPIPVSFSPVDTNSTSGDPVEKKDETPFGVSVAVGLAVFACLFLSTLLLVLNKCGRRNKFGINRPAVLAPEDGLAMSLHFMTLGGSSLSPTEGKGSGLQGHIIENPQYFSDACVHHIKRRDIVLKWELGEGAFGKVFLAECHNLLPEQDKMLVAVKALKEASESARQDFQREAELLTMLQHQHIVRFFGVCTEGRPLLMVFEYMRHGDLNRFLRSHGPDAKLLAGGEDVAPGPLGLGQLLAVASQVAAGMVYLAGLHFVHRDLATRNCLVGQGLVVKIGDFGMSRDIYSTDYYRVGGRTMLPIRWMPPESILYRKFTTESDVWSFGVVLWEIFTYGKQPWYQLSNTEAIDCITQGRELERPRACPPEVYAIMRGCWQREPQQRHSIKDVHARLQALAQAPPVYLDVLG

With `CCn1cc(C(=O)Nc2ccc(Oc3ccnc4cc(OCCCN5CCOCC5)c5c(c34)OCCO5)c(F)c2)c(=O)n(-c2ccc(F)cc2)c1=O` [Example 38, N-(3-fluoro-4-((5-(3-morpholinopropoxy)-2,3-dihydro-[1,4]dioxino[2,3-f]quinolin-10-yl)oxy)phenyl)-3-(4-fluorophenyl)-1-ethyl-2,4-dioxo-1,2,3,4-tetrahydropyrimidine-5-carboxamide], the IC50 at VEGFR-2 kinase is 50 to 500 nM; against TRKA kinase, below 50 nM; in the experiment with Ba/F3 LMNA-NTRK1 cells, below 50 nM.
For `Cn1cc(C(=O)Nc2ccc(Oc3ccnc4cc(OCCCN5CCCCC5)c5c(c34)OCCO5)c(F)c2)c(=O)n(-c2ccc(F)cc2)c1=O` [Example 39, N-(3-fluoro-4-((5-(3-(piperidin-1-yl)propoxy)-2,3-dihydro-[1,4]dioxino[2,3-f]quinolin-10-yl)oxy)phenyl)-3-(4-fluorophenyl)-1-methyl-2,4-dioxo-1,2,3,4-tetrahydropyrimidine-5-carboxamide], the concentration for half-maximal inhibition (IC50) at VEGFR-2 kinase is 50 to 500 nM; at TRKA kinase, below 50 nM; with Ba/F3 LMNA-NTRK1 cells it was below 50 nM.
With `CC(C)n1cc(C(=O)Nc2ccc(Oc3ccnc4cc(OCCCN5CCCCC5)c5c(c34)OCCO5)c(F)c2)c(=O)n(-c2ccc(F)cc2)c1=O` [Example 40, N-(3-fluoro-4-((5-(3-(piperidin-1-yl)propoxy)-2,3-dihydro-[1,4]dioxino[2,3-f]quinolin-10-yl)oxy)phenyl)-3-(4-fluorophenyl)-1-isopropyl-2,4-dioxo-1,2,3,4-tetrahydropyrimidine-5-carboxamide], the values for the IC50 at VEGFR-2 kinase, at TRKA kinase and in the experiment with Ba/F3 LMNA-NTRK1 cells were 50 to 500 nM, below 50 nM and below 50 nM, respectively.
Regarding `CCn1cc(C(=O)Nc2ccc(Oc3ccnc4cc(OCCCN5CCCCC5)c5c(c34)OCCO5)c(F)c2)c(=O)n(-c2ccc(F)cc2)c1=O` [Example 41, N-(3-fluoro-4-((5-(3-(piperidin-1-yl)propoxy)-2,3-dihydro-[1,4]dioxino[2,3-f]quinolin-10-yl)oxy)phenyl)-3-(4-fluorophenyl)-1-ethyl-2,4-dioxo-1,2,3,4-tetrahydropyrimidine-5-carboxamide], the values for the IC50 on VEGFR-2 kinase, on TRKA kinase and with Ba/F3 LMNA-NTRK1 cells were 50 to 500 nM, below 50 nM and below 50 nM, respectively.
Turning to `COCCOc1cc2nccc(Oc3ccc(NC(=O)c4cn(C)c(=O)n(-c5ccc(F)cc5)c4=O)cc3F)c2c2c1OCCO2` [Example 42, N-(3-fluoro-4-((5-(2-methoxyethoxy)-2,3-dihydro-[1,4]dioxino[2,3-f]quinolin-10-yl)oxy)phenyl)-3-(4-fluorophenyl)-1-methyl-2,4-dioxo-1,2,3,4-tetrahydropyrimidine-5-carboxamide], the IC50 at VEGFR-2 kinase is 50 to 500 nM; on TRKA kinase, below 50 nM; in the experiment with Ba/F3 LMNA-NTRK1 cells, below 50 nM.
As to `CC(C)n1cc(C(=O)Nc2ccc(Oc3ccnc4cc(OCCCN5CCC(C)(O)CC5)c5c(c34)OCCO5)c(F)c2)c(=O)n(-c2ccc(F)cc2)c1=O` [Example 94, N-(3-fluoro-4-((5-(3-(4-methyl-4-hydroxypiperidin-1-yl)propoxy)-2,3-dihydro-[1,4]dioxino[2,3-f]quinolin-10-yl)oxy)phenyl)-3-(4-fluorophenyl)-1-isopropyl-2,4-dioxo-1,2,3,4-tetrahydropyrimidine-5-carboxamide], the IC50 on VEGFR-2 kinase was 500 to 5000 nM; on TRKA kinase, below 50 nM; with Ba/F3 LMNA-NTRK1 cells it was 50 to 200 nM.
On to `COCCN(C)CCCOc1cc2nccc(Oc3ccc(NC(=O)c4cn(C(C)C)c(=O)n(-c5ccc(F)cc5)c4=O)cc3F)c2c2c1OCCO2` [Example 95, N-(3-fluoro-4-((5-(3-((2-methoxyethyl)(methyl)amino)propoxy)-2,3-dihydro-[1,4]dioxino[2,3-f]quinolin-10-yl)oxy)phenyl)-3-(4-fluorophenyl)-1-isopropyl-2,4-dioxo-1,2,3,4-tetrahydropyrimidine-5-carboxamide], for which the figures for the IC50 at VEGFR-2 kinase, against TRKA kinase and with Ba/F3 LMNA-NTRK1 cells were 500 to 5000 nM, below 50 nM and 50 to 200 nM, respectively.
The matching figures for `CC(C)n1cc(C(=O)Nc2ccc(Oc3ccnc4cc(OCCCN(C)C5CCC5)c5c(c34)OCCO5)c(F)c2)c(=O)n(-c2ccc(F)cc2)c1=O` [Example 96, N-(3-fluoro-4-((5-(3-((cyclobutyl)(methyl)amino)propoxy)-2,3-dihydro-[1,4]dioxino[2,3-f]quinolin-10-yl)oxy)phenyl)-3-(4-fluorophenyl)-1-isopropyl-2,4-dioxo-1,2,3,4-tetrahydropyrimidine-5-carboxamide]: 500 to 5000 nM, below 50 nM and below 50 nM.
The matching figures for `CC(C)n1cc(C(=O)Nc2ccc(Oc3ccnc4cc(OCCCN5CCOCC5)c5c(c34)OCCO5)c(Cl)c2)c(=O)n(-c2ccc(F)cc2)c1=O` [Example 97, N-(3-chloro-4-((5-(3-morpholinopropoxy)-2,3-dihydro-[1,4]dioxino[2,3-f]quinolin-10-yl)oxy)phenyl)-3-(4-fluorophenyl)-1-isopropyl-2,4-dioxo-1,2,3,4-tetrahydropyrimidine-5-carboxamide]: 500 to 5000 nM, below 50 nM and below 50 nM.
The matching figures for `Cn1cc(C(=O)Nc2ccc(Oc3ccnc4cc(OCCCN5CCOCC5)c5c(c34)OCCO5)cc2Cl)c(=O)n(-c2ccc(F)cc2)c1=O` [Example 98, N-(2-chloro-4-((5-(3-morpholinopropoxy)-2,3-dihydro-[1,4]dioxino[2,3-f]quinolin-10-yl)oxy)phenyl)-3-(4-fluorophenyl)-1-methyl-2,4-dioxo-1,2,3,4-tetrahydropyrimidine-5-carboxamide]: 500 to 5000 nM, below 50 nM and below 50 nM.
As for `COc1cc2nccc(Oc3ccc(NC(=O)c4cn(CC(=O)O)c(=O)n(-c5ccc(F)cc5)c4=O)cc3F)c2c2c1OCCO2` [Example 104, 2-(5-((3-fluoro-4-((5-methoxy-2,3-dihydro-[1,4]dioxino[2,3-f]quinolin-10-yl)oxy)phenyl)carbamoyl)-3-(4-fluorophenyl)-2,4-dioxo-3,4-dihydropyrimidin-1(2H)-yl)acetic acid], the values for the IC50 at VEGFR-2 kinase, on TRKA kinase and in the experiment on Ba/F3 LMNA-NTRK1 cells were above 5000 nM, below 50 nM and above 1000 nM, respectively.
The matching figures for `CCOc1ccn(-c2ccc(F)cc2)c(=O)c1C(=O)Nc1ccc(Oc2ccnc3cc(OCC4(N)CC4)c4c(c23)OCCO4)c(F)c1` [Example 105, N-(4-((5-((1-aminocyclopropyl)methoxy)-2,3-dihydro-[1,4]dioxino[2,3-f]quinolin-10-yl)oxy)-3-fluorophenyl)-4-ethoxy-1-(4-fluorophenyl)-2-oxo-1,2-dihydropyridine-3-carboxamide]: 50 to 500 nM, below 50 nM and 50 to 200 nM.
The matching figures for `CCOc1ccn(-c2ccc(C)cc2)c(=O)c1C(=O)Nc1ccc(Oc2ccnc3cc(OC)c4c(c23)OCCO4)c(F)c1` [Example 112, N-(3-fluoro-4-((5-methoxy-2,3-dihydro-[1,4]dioxino[2,3-f]quinolin-10-yl)oxy)phenyl)-2-oxo-4-ethoxy-1-(4-methylphenyl)-1,2-dihydropyridin-3-carboxamide]: 50 to 500 nM, below 50 nM and below 50 nM.

Source of the values: patent publication US12202835B2, “Substituted aromatic ring-linked dioxinoquinazolines and dioxinoquinolines as kinase inhibitors” (BEIJING SCITECH-MQ PHARMACEUTICALS LIMITED, priority 2018, dated 2025).
